Values of other authors, collected in the Kinase Knowledgebase extract (Sharma et al. 2016).

Molecular target: MAPK14 (human) (UniProt Q16539)
Assay: Assessment of MAPK14 Kinase Activity

Chain of MAPK14 (human) (Q16539 whole entry, looked up): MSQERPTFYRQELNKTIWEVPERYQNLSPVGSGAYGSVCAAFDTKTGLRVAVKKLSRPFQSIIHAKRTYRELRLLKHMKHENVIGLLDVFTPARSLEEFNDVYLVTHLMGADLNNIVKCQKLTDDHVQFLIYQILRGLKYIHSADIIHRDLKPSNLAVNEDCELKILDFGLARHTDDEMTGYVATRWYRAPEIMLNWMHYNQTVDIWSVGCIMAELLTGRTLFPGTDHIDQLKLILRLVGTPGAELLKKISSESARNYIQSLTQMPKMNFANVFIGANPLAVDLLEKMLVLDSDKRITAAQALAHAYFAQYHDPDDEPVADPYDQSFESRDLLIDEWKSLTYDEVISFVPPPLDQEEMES

| Structure (SMILES) | IC50 [nM] |
| --- | --- |
| CCn1c(=O)c(-c2cc(C(=O)NC3CC3)ccc2C)cc2cnn(-c3ccc(F)cc3F)c21 | 0.6 |
| Cc1ccc(C(N)=O)cc1-c1cc2cnn(-c3c(F)cccc3F)c2n(C)c1=O | 1.5 |
| Cc1ccc(C(=O)Nc2ccon2)cc1-c1cc2cnn(-c3c(F)cccc3F)c2n(C)c1=O | 1 |
| Cc1ccc(C(=O)NC2(C)CC2)cc1-c1cc2cnn(-c3c(F)cccc3F)c2n(C)c1=O | 1.7 |
| Cc1ccc(C(=O)O)cc1Nc1cc(=O)n(C)c2c1cnn2-c1ccc(F)cc1F | 1000 |
| Cc1ccc(C(=O)NC2CC2)cc1-c1cc2cnn(-c3ccccc3C)c2n(C)c1=O | 1.9 |
| Cn1c(=O)cc(NC2CCOCC2)c2cnn(-c3cccc(F)c3)c21 | 1000 |
| Cc1c(F)cc(C(=O)NC2CC2)cc1-c1cc2cnn(-c3c(F)cccc3F)c2n(C)c1=O | 0.8 |
| CNc1noc2c(-c3cc4cnn(-c5c(F)cccc5F)c4n(C)c3=O)c(C)ccc12 | 2 |
| Cn1c(=O)cc(Nc2ccc(F)cc2F)c2cnn(-c3ccc(F)cc3F)c21 | 1000 |
| Cn1c(=O)cc(Nc2ccc(F)cc2)c2cnn(-c3c(F)cccc3F)c21 | 1000 |
| Cc1ccc(C(=O)NC2CC2)cc1-c1cc2cnn(-c3ncccc3C(F)(F)F)c2n(C)c1=O | 2.3 |
| Cc1ccc(C(=O)NC2CC2)cc1-c1cc2cnn(-c3cc(F)ccc3F)c2n(C)c1=O | 1.9 |
| Cc1ccc(C(=O)NC2CC2)cc1-c1cc2cnn(-c3ccccc3Cl)c2n(C)c1=O | 0.899 |
